Patent US7960409B2, “Pharmaceutical phenylquinoline and chromen-2-one triazole compounds” (Merck Sharp & Dohme Corp., priority 2007, dated 2011)

Biological target: T1, recombinant human 5-lipoxygenase (Homo sapiens, UniProt P09917)
T1 construct: made in house; host or cells: Sf9 cells infected with recombinant baculovirus rvH5LO (8-1)
T1 sequence (P09917 1-674): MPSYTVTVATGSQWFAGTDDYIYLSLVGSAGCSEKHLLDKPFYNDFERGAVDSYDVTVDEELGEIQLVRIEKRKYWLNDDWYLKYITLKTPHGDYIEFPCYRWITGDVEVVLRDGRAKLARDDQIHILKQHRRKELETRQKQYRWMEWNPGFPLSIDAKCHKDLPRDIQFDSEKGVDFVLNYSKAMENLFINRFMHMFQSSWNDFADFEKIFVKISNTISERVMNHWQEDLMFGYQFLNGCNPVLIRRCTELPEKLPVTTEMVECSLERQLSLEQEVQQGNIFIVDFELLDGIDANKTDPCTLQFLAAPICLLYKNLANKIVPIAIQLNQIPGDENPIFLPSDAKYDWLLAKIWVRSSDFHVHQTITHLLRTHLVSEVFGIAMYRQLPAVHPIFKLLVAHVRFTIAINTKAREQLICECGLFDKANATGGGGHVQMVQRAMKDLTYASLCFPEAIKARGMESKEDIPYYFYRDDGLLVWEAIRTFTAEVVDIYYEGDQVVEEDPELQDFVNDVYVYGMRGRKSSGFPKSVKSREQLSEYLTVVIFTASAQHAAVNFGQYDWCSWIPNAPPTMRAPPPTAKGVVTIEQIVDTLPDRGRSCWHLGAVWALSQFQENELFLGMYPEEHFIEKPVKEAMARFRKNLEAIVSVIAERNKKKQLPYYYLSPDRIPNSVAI
Test: Human 5-Lipoxygenase Enzyme Assay
Type: biochemical
Settings: spectrophotometric assay, purified recombinant human 5-lipoxygenase, 20 μM arachidonic acid
Protocol: Compounds of this invention can be tested using the following assays to determine their mammalian leukotriene biosynthesis inhibiting activity.
Human 5-Lipoxygenase Enzyme Assay
The activity of 5-lipoxygenase was measured using a spectrophotometric assay and recombinant human 5-lipoxygenase as a source of enzyme. Human 5-lipoxygenase was purified from Sf9 cells infected with the recombinant baculovirus rvH5LO (8-1) containing the coding sequence for human 5-lipoxygenase as described by Percival et al., (Eur. J. Biochem 210, 109-117, 1992). The enzymatic activity was measured using a spectrophotometric assay from the optimal rate of conjugated diene formation (absorbance at 238 nm) using the procedure described in Riendeau et al. (Biochem. Pharmacol. 38, 2313-2321, 1989) with minor modifications. The incubation mixture contained 25 mM potassium phosphate, pH 7.5, 0.1 mM EDTA, 0.3 mM CaCl2, 24 μg/ml phosphatidylcholine, 0.1 mM ATP, 0.5 mM DTT, 20 μM arachidonic acid (2 μl from a 100-fold solution in ethanol), inhibitor (2 μl aliquot from a 100-fold solution in DMSO) and an aliquot of purified 5-lipoxygenase. Reactions were initiated by the addition of the purified 5-lipoxygenase and the rate of conjugated diene production was followed for 5 minutes at room temperature. The reaction was performed in a Costar UV plate (Cat. # 3635) and the absorbance changes at 238 nm were recorded with a Molecular Devices UV/VIS 96 well spectrophotometer (Spectra Max 190) using SOFTmax PRO software. Enzymatic activity was calculated from the optimal rate of the reaction by a linear fit of the increase in absorbance at 238 nm over 36 seconds. When the rate of diene formation is low (<0.01 Absorbance Unit/min) the linear fit is performed over 180 seconds.

Row | Compound | IC50
1 | CC[C@](O)(c1cn(Cc2ccc3c(-c4ccccc4F)cc(=O)oc3c2)nn1)C(F)(F)F [Example 3, (S)-4-(2-Fluoro-phenyl)-7-[4-(1-hydroxy-1-trifluoromethyl-propyl)-[1,2,3]triazol-1-ylmethyl]-chromen-2-one] | 1210 nM
2 | CCC(O)(CC)c1cn(Cc2ccc3c(-c4cccc(F)c4)cc(=O)oc3c2)nn1 [Example 12, 7-[4-(1-Ethyl-1-hydroxy-propyl)-[1,2,3]triazol-1-ylmethyl]-4-(3-fluoro-phenyl)-chromen-2-one] | 324 nM
3 | CCC(O)(CC)c1cn(Cc2ccc3c(-c4ccc(F)cc4)cc(=O)oc3c2)nn1 [Example 16, 7-[4-(1-Ethyl-1-hydroxy-propyl)-[1,2,3]triazol-1-ylmethyl]-4-(4-fluoro-phenyl)-chromen-2-one] | 442 nM
4 | O=c1cc(-c2cccc(F)c2)c2ccc(Cn3cc(Cc4ccccc4)nn3)cc2o1 [Example 22, 7-[(4-benzyl-1H-1,2,3-triazol-1-yl)methyl]-4-(3-fluorophenyl)-2H-chromen-2-one] | 951 nM
5 | O=c1cc(-c2ccc(F)cc2)c2ccc(Cn3cc(C(O)(C4CC4)C4CC4)nn3)cc2o1 [Example 26, 7-[4-(Dicyclopropyl-hydroxy-methyl)-[1,2,3]triazol-1-ylmethyl]-4-(4-fluoro-phenyl)-chromen-2-one] | 98 nM
6 | CCC(O)(c1nnn(Cc2ccc3c(-c4cccc(F)c4)cc(=O)oc3c2)c1C)C(F)(F)F (stereo not drawn) [Example 27, 4-(3-fluorophenyl)-7-{[4-(1-hydroxy-1-(trifluoromethyl)propyl)-5-methyl-1H-1,2,3-triazol-1-yl}methyl]-2H-chromen-2-one] | 298 nM
7 | CC[C@](O)(c1cn(Cc2ccc3c(-c4coc(C)n4)cc(=O)oc3c2)nn1)C(F)(F)F [Example 37, (S)-7-({4-[1-hydroxy-1-(trifluoromethyl)propyl]-1H-1,2,3-triazol-1-yl}methyl)-4-(2-methyl-1,3-oxazol-4-yl)-2H-chromen-2-one] | 351 nM
8 | CC[C@](O)(c1cn(Cc2ccc3c(-c4cccc(F)c4)cc(C#N)nc3c2)nn1)C(F)(F)F [Example 40, (S)-4-(3-fluorophenyl)-7-({4-[1-hydroxy-1-(trifluoromethyl)propyl]-1H-1,2,3-triazol-1-yl}methyl)quinoline-2-carbonitrile] | 54 nM
9 | CC[C@](O)(c1cn(Cc2ccc3c(-c4ccc(F)cc4)cc(C#N)nc3c2)nn1)C(F)(F)F [Example 41, (S)-4-(4-fluorophenyl)-7-({4-[1-hydroxy-1-(trifluoromethyl)propyl]-1H-1,2,3-triazol-1-yl}methyl)quinoline-2-carbonitrile] | 51 nM
10 | CCC(O)(CC)c1cn(Cc2ccc3c(-c4ccccc4)cc(C#N)nc3c2)nn1 [Example 43, 7-{[4-(1-ethyl-1-hydroxypropyl)-1H-1,2,3-triazol-1-yl]methyl}-4-phenylquinoline-2-carbonitrile] | 275 nM
11 | N#Cc1cc(-c2ccc(F)cc2)c2ccc(Cn3cc(C(O)(C4CC4)C4CC4)nn3)cc2n1 [Example 46, 7-({4-[dicyclopropyl(hydroxy)methyl]-1H-1,2,3-triazol-1-yl}methyl)-4-(4-fluorophenyl)quinoline-2-carbonitrile] | 103 nM
12 | N#Cc1cc(-c2cccc(F)c2)c2ccc(Cn3cc(C(O)(C4CC4)C4CC4)nn3)cc2n1 [Example 47, 7-({4-[dicyclopropyl(hydroxy)methyl]-1H-1,2,3-triazol-1-yl}methyl)-4-(3-fluorophenyl)-quinoline-2-carbonitrile] | 62 nM
13 | N#Cc1cc(-c2ccccc2)c2ccc(Cn3cc(C(O)(C4CC4)C4CC4)nn3)cc2n1 [Example 48, 7-({4-[dicyclopropyl(hydroxy)methyl]-1H-1,2,3-triazol-1-yl}methyl)-4-phenylquinoline-2-carbonitrile] | 82 nM
14 | CC[C@](O)(c1cn(Cc2ccc3c(-c4cc(Cl)cc(Cl)c4)cc(C#N)nc3c2)nn1)C(F)(F)F [Example 57, (S)-4-(3,5-dichlorophenyl)-7-({4-[1-hydroxy-1-(trifluoromethyl)propyl]-1H-1,2,3-triazol-1-yl}methyl)quinoline-2-carbonitrile] | 86 nM
15 | CC[C@](O)(c1cn(Cc2ccc3c(-c4cc(F)cc(F)c4)cc(C#N)nc3c2)nn1)C(F)(F)F [Example 58, (S)-4-(3,5-difluorophenyl)-7-({4-[1-hydroxy-1-(trifluoromethyl)propyl]-1H-1,2,3-triazol-1-yl}methyl)quinoline-2-carbonitrile] | 52 nM

The remaining compounds from weak to strong by IC50, led by results:

Row | IC50 | Compound
16 | 50 nM | CC[C@](O)(c1cn(Cc2ccc3c(-c4ccc(F)cc4)cc(=O)oc3c2)nn1)C(F)(F)F [Example 2, (S)-4-(4-Fluorophenyl)-7-[4-(1-hydroxy-1-trifluoromethyl-propyl)-[1,2,3]triazol-1-ylmethyl]-chromen-2-one]
17 | 50 nM | CC[C@](O)(c1cn(Cc2ccc3c(-c4ccsc4)cc(=O)oc3c2)nn1)C(F)(F)F [Example 8, (S)-7-[4-(1-Hydroxy-1-trifluoromethyl-propyl)-[1,2,3]triazol-1-ylmethyl]-4-thiophen-3-yl-chromen-2-one]
18 | 45 nM | CC[C@](O)(c1cn(Cc2ccc3c(-c4ccccc4)cc(=O)oc3c2)nn1)C(F)(F)F [Example 5, (S)-7-[4-(1-Hydroxy-1-trifluoromethyl-propyl)-[1,2,3]triazol-1-ylmethyl]-4-phenyl-chromen-2-one]
19 | 41 nM | CC[C@](O)(c1cn(Cc2ccc3c(-c4ccc(F)cc4)cc(OC)nc3c2)nn1)C(F)(F)F [Example 88, (S)-1,1-trifluoro-2-(1-{[4-(4-fluorophenyl)-2-methoxyquinolin-7-yl]methyl}-1H-1,2,3-triazol-4-yl)butan-2-ol]
20 | 38 nM | CC[C@](O)(c1cn(Cc2ccc3c(-c4cccc(F)c4)cc(=O)oc3c2)nn1)C(F)(F)F [Example 1, (S)-4-(3-fluorophenyl)-7-({4-[1-hydroxy-1-(trifluoromethyl)propyl]-1H-1,2,3-triazol-1-yl}methyl)-2H-chromen-2-one]
21 | 37 nM | CCCC(O)(c1cn(Cc2ccc3c(-c4cccc(F)c4)cc(=O)oc3c2)nn1)C(F)(F)F (stereo not drawn) [Example 30, 4-(3-Fluorophenyl)-7-({4-[1-hydroxy-1-(trifluoromethyl)butyl]-1H-1,2,3-triazol-1-yl}methyl)-2H-chromen-2-one]
22 | 35 nM | CC[C@](O)(c1cn(Cc2ccc3c(-c4ccccc4)cc(C(N)=O)nc3c2)nn1)C(F)(F)F [Example 69, (S)-7-({4-[1-hydroxy-1-(trifluoromethyl)propyl]-1H-1,2,3-triazol-1-yl}methyl)-4-phenylquinoline-2-carboxamide]
23 | 34 nM | CC[C@](O)(c1cn(Cc2ccc3c(-c4ccccc4)cc(C#N)nc3c2)nn1)C(F)(F)F [Example 39, (S)-7-({4-[1-hydroxy-1-(trifluoromethyl)propyl]-1H-1,2,3-triazol-1-yl}methyl)-4-phenylquinoline-2-carbonitrile]
24 | 17 nM | CC[C@](O)(c1cn(Cc2ccc3c(-c4ccc(F)cc4)cc(N(C)C)nc3c2)nn1)C(F)(F)F [Example 87, (S)-2-(1-{[2-(dimethylamino)-4-(4-fluorophenyl)quinolin-7-yl]methyl}-1H-1,2,3-triazol-4-yl)-1,1,1-trifluorobutan-2-ol]
